The results in this text go back to ChEMBL document CHEMBL4507288 (2021).

The target in test [1] is 5-hydroxytryptamine receptor 1D (Homo sapiens, UniProt P28221). Kind of test: GPCRScan assay: inhibition of 5-HT1D. Details: radioligand conc. used [nm] 1.0 – 2.0, parental cells HEKT.
The test system of test [2] is Tyrosine-protein kinase ABL1 (Homo sapiens), P00519 [Y253F]. Conditions: Compound concentration 1000.0 nM.
Test [3] deals with Atypical kinase COQ8B, mitochondrial (Homo sapiens) (UniProt Q96D53). Conditions: Compound concentration 1000.0 nM.
Test [4] addresses RAC-gamma serine/threonine-protein kinase (Homo sapiens) (UniProt Q9Y243). Conditions: Compound concentration 1000.0 nM.
Test [5] addresses Aurora kinase B (Homo sapiens) (UniProt Q96GD4). Conditions: Compound concentration 1000.0 nM.
For test [6], the target named is BMP-2-inducible protein kinase (Homo sapiens) (UniProt Q9NSY1). Conditions: Compound concentration 1000.0 nM.
In test [7] the target is Tyrosine-protein kinase Blk (Homo sapiens) (UniProt P51451). Conditions: Compound concentration 1000.0 nM.
Test [8] concerns the target Bone morphogenetic protein receptor type-1B (Homo sapiens) (UniProt O00238). Conditions: Compound concentration 1000.0 nM.
The target in test [9] is Bone morphogenetic protein receptor type-2 (Homo sapiens) (UniProt Q13873). Conditions: Compound concentration 1000.0 nM.
Test [10] concerns the target Calcium/calmodulin-dependent protein kinase type II subunit alpha (Homo sapiens) (UniProt Q9UQM7). Conditions: Compound concentration 1000.0 nM.
The target of test [11] is Cyclin-dependent kinase 13 (Homo sapiens) (UniProt Q14004). Conditions: Compound concentration 1000.0 nM.
The target of test [12] is Cyclin-dependent kinase 2 (Homo sapiens) (UniProt P24941). Conditions: Compound concentration 1000.0 nM.
For test [13], the target named is Cyclin-dependent kinase 3 (Homo sapiens) (UniProt Q00526). Conditions: Compound concentration 1000.0 nM.
Test [14] deals with Cyclin-dependent kinase-like 3 (Homo sapiens) (UniProt Q8IVW4). Conditions: Compound concentration 1000.0 nM.
The target in test [15] is Death-associated protein kinase 1 (Homo sapiens) (UniProt P53355). Conditions: Compound concentration 1000.0 nM.
In test [16] the target is Dual specificity tyrosine-phosphorylation-regulated kinase 1A (Homo sapiens) (UniProt Q13627). Conditions: Compound concentration 1000.0 nM.
The subject of test [17] is Epidermal growth factor receptor (Homo sapiens), P00533 [UNDEFINED MUTATION]. Conditions: Compound concentration 1000.0 nM.
Test [18] addresses Ephrin type-A receptor 2 (Homo sapiens) (UniProt P29317). Conditions: Compound concentration 1000.0 nM.
The target in test [19] is Ephrin type-B receptor 6 (Homo sapiens) (UniProt O15197). Conditions: Compound concentration 1000.0 nM.
Test [20] concerns the target Focal adhesion kinase 1 (Homo sapiens) (UniProt Q05397). Conditions: Compound concentration 1000.0 nM.
The target in test [21] is Vascular endothelial growth factor receptor 1 (Homo sapiens) (UniProt P17948). Conditions: Compound concentration 1000.0 nM.
In test [22] the test system is Receptor-type tyrosine-protein kinase FLT3 (Homo sapiens), P36888 [UNDEFINED MUTATION]. Conditions: Compound concentration 1000.0 nM.
The target of test [23] is Vascular endothelial growth factor receptor 3 (Homo sapiens) (UniProt P35916). Conditions: Compound concentration 1000.0 nM.
Test [24] has as its target Cyclin-G-associated kinase (Homo sapiens) (UniProt O14976). Conditions: Compound concentration 1000.0 nM.
Test [25] concerns the target Homeodomain-interacting protein kinase 4 (Homo sapiens) (UniProt Q8NE63). Conditions: Compound concentration 1000.0 nM.
The target of test [26] is Mitogen-activated protein kinase 10 (Homo sapiens) (UniProt P53779). Conditions: Compound concentration 1000.0 nM.
Test [27] concerns the target Mast/stem cell growth factor receptor Kit (Homo sapiens) (UniProt P10721). Conditions: Compound concentration 1000.0 nM.
Test [28] relates to Mast/stem cell growth factor receptor Kit (Homo sapiens), P10721 [L576P]. Conditions: Compound concentration 1000.0 nM.
For test [29], the target named is Leukocyte tyrosine kinase receptor (Homo sapiens) (UniProt P29376). Conditions: Compound concentration 1000.0 nM.
The target in test [30] is Mitogen-activated protein kinase kinase kinase 15 (Homo sapiens) (UniProt Q6ZN16). Conditions: Compound concentration 1000.0 nM.
Test [31] has as its target Serine/threonine-protein kinase MARK2 (Homo sapiens) (UniProt Q7KZI7). Conditions: Compound concentration 1000.0 nM.
For test [32], the target named is Dual specificity mitogen-activated protein kinase kinase 7 (Homo sapiens) (UniProt O14733). Conditions: Compound concentration 1000.0 nM.
The target in test [33] is Mitogen-activated protein kinase 11 (Homo sapiens) (UniProt Q15759). Conditions: Compound concentration 1000.0 nM.
Test [34] has as its target Serine/threonine-protein kinase PAK 2 (Homo sapiens) (UniProt Q13177). Conditions: Compound concentration 1000.0 nM.
The target in test [35] is Phosphatidylinositol 4-phosphate 5-kinase type-1 alpha (Homo sapiens) (UniProt Q99755). Conditions: Compound concentration 1000.0 nM.
In test [36] the target is cAMP-dependent protein kinase catalytic subunit beta (Homo sapiens) (UniProt P22694). Conditions: Compound concentration 1000.0 nM.
Test [37] addresses Protein-tyrosine kinase 2-beta (Homo sapiens) (UniProt Q14289). Conditions: Compound concentration 1000.0 nM.
Test [38] has as its target RAF proto-oncogene serine/threonine-protein kinase (Homo sapiens) (UniProt P04049). Conditions: Compound concentration 1000.0 nM.
Test [39] addresses Ribosomal protein S6 kinase alpha-3 (Homo sapiens) (UniProt P51812). Conditions: Compound concentration 1000.0 nM.
The target of test [40] is Serine/threonine-protein kinase TBK1 (Homo sapiens) (UniProt Q9UHD2). Conditions: Compound concentration 1000.0 nM.
For test [41], the target named is Dual specificity testis-specific protein kinase 1 (Homo sapiens) (UniProt Q15569). Conditions: Compound concentration 1000.0 nM.
The target of test [42] is Serine/threonine-protein kinase TNNI3K (Homo sapiens) (UniProt Q59H18). Conditions: Compound concentration 1000.0 nM.
In test [43] the target is Non-receptor tyrosine-protein kinase TYK2 (Homo sapiens) (UniProt P29597). Conditions: Compound concentration 1000.0 nM.
For test [44], the target named is Serine/threonine-protein kinase WNK4 (Homo sapiens) (UniProt Q96J92). Conditions: Compound concentration 1000.0 nM.
Test [45] concerns the target Serine/threonine-protein kinase 32C (Homo sapiens) (UniProt Q86UX6). Conditions: Compound concentration 1000.0 nM.

Chain of Focal adhesion kinase 1 (Homo sapiens) (Q05397 2-1052 limits assumed): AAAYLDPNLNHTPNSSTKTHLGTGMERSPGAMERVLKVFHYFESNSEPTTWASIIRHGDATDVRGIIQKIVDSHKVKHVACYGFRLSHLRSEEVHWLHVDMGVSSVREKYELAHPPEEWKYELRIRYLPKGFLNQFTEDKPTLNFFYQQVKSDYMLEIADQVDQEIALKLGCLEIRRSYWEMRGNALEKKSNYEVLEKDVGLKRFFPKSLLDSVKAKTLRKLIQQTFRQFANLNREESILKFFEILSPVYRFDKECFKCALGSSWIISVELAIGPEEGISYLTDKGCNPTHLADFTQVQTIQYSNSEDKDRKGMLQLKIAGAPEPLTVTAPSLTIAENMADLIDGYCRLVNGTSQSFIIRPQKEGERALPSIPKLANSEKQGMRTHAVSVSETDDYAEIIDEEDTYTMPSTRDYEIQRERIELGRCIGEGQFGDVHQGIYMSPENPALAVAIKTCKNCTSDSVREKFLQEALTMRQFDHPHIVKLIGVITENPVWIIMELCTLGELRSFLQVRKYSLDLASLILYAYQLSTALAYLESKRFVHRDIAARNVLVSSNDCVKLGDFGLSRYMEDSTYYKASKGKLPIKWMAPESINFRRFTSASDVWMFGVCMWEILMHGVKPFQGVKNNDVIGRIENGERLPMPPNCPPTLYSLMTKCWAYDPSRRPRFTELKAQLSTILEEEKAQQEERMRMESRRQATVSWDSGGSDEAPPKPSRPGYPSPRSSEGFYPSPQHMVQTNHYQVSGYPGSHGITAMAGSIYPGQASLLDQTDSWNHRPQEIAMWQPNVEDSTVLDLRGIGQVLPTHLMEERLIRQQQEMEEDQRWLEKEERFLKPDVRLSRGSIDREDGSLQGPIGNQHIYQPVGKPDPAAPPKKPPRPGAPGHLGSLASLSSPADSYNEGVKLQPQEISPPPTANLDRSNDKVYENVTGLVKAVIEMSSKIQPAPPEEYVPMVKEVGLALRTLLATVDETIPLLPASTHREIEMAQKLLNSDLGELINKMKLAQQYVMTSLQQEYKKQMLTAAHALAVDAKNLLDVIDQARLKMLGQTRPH
Chain of RAC-gamma serine/threonine-protein kinase (Homo sapiens) (Q9Y243 whole entry): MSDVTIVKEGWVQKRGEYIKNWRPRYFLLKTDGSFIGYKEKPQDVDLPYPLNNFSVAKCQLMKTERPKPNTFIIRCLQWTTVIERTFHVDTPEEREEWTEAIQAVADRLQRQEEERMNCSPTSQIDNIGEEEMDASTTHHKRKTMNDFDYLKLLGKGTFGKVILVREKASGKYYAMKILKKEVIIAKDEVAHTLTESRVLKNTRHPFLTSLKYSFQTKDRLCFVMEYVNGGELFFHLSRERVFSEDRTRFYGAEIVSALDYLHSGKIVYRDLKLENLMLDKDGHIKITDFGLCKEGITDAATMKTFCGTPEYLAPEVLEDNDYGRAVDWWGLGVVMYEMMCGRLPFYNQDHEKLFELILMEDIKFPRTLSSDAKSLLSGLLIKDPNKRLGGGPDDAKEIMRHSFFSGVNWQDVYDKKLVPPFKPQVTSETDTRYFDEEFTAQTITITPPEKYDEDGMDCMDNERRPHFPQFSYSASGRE
Chain of Mitogen-activated protein kinase 11 (Homo sapiens) (Q15759 whole entry): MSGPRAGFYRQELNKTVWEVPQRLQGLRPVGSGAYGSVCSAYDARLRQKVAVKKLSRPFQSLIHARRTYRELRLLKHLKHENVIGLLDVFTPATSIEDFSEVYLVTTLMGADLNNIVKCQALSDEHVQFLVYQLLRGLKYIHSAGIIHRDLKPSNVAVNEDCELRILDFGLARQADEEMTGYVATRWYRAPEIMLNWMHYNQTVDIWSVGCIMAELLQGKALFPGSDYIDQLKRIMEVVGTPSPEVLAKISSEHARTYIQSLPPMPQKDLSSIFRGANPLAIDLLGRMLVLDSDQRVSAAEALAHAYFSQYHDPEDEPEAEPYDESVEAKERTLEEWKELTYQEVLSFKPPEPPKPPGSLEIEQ
Chain of Ribosomal protein S6 kinase alpha-3 (Homo sapiens) (P51812 whole entry): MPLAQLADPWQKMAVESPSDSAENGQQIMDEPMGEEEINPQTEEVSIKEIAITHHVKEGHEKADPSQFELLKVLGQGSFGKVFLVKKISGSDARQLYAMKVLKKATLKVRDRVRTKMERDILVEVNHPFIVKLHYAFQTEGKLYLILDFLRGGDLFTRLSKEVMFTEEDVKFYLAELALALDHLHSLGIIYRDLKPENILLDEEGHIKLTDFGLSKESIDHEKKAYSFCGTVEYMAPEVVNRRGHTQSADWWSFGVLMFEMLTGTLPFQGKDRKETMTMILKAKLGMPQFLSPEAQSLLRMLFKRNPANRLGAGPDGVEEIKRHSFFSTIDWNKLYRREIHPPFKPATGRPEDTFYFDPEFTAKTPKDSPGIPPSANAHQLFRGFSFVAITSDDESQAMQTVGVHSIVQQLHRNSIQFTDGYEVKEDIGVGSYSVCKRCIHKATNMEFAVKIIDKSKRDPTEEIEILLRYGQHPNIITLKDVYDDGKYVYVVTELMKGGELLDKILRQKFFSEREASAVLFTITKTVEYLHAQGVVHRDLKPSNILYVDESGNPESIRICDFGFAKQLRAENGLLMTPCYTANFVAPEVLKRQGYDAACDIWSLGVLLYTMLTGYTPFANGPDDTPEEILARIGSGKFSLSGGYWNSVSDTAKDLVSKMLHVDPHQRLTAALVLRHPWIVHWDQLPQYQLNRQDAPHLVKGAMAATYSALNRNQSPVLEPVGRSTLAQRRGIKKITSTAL
Chain of Non-receptor tyrosine-protein kinase TYK2 (Homo sapiens) (P29597 whole entry): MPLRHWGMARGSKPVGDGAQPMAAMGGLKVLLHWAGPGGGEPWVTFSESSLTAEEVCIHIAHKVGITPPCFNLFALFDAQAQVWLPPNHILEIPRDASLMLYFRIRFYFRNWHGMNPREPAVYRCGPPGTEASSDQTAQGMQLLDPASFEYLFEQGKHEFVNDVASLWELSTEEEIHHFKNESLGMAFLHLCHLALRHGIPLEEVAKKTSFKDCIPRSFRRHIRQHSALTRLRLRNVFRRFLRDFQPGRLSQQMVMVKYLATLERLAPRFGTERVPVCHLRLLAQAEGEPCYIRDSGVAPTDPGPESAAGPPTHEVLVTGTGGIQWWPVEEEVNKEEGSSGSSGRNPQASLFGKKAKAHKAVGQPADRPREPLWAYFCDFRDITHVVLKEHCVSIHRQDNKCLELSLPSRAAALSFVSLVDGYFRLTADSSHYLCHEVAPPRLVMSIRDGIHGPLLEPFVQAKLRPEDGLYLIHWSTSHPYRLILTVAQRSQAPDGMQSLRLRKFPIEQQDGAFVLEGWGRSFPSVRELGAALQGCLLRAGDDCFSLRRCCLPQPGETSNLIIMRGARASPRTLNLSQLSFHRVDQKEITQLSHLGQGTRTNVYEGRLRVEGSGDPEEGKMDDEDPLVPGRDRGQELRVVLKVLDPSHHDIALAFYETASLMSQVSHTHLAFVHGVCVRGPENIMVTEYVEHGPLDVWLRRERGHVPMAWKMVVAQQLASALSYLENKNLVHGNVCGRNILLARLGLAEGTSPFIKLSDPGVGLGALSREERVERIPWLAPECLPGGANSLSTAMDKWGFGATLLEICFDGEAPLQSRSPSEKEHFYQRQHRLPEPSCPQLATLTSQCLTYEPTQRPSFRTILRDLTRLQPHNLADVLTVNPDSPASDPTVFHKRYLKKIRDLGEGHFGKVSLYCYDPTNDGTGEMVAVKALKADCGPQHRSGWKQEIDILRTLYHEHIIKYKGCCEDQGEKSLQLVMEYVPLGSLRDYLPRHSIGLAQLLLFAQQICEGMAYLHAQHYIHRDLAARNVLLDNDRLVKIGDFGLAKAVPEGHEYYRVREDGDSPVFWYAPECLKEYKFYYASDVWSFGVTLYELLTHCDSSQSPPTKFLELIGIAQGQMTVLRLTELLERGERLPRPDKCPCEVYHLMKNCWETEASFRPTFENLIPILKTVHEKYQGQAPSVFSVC
Chain of Ephrin type-A receptor 2 (Homo sapiens) (P29317 whole entry): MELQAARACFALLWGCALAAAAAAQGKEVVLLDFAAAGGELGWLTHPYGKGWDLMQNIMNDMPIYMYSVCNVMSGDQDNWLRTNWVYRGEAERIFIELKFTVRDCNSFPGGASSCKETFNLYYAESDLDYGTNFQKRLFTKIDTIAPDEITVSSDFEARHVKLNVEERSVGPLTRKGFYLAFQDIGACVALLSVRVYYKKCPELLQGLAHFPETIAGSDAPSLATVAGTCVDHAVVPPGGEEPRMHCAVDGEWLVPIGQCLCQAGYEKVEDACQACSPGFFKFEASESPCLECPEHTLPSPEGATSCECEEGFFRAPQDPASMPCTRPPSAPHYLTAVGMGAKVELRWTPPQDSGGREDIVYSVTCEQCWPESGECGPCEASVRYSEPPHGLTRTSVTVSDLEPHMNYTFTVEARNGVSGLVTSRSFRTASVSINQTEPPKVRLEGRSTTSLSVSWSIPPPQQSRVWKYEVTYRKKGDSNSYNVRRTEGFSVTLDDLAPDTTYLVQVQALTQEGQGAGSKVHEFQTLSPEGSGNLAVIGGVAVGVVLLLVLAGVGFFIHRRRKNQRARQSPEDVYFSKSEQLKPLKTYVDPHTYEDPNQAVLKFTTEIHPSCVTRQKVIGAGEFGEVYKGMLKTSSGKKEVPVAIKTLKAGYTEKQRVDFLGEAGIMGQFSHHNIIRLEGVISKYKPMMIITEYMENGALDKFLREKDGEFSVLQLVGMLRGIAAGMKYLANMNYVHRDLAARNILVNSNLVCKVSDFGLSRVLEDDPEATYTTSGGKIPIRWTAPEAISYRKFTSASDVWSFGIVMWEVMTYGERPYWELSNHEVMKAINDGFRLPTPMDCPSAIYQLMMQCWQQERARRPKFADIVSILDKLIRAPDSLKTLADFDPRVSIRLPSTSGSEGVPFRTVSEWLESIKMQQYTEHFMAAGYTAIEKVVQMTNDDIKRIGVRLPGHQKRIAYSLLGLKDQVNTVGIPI

By Ki is commonly meant a dissociation constant, usually derived from enzyme kinetics or from competition with a known ligand. As for `CC(C)(C)OC(=O)N1CCCC1CNC1CCC(c2cc(F)ccc2F)(S(=O)(=O)c2ccc(Cl)cc2)CC1` (stereo not given) [GSI-NC], in [1], the Ki is 234 nM.
Consider `O=S(=O)(NC1CCC(c2cc(F)ccc2F)(S(=O)(=O)c2ccc(Cl)cc2)CC1)C(F)(F)F` (stereo not given) [MRK-560], for which the residual activity was 100% in test [2]; 88% in [3]; 100% in test [4]; 100% in test [5]; 92% in [6]; 89% in [7]. For the same molecule, the residual activity in [8] is 100%; in test [9] it was 100%; in test [10], 100%; in [11] it was 92%; in test [12] it was 100%; in test [13] it was 100%. The residual activity was 100% in test [14]; 95% in test [15]; 78% in test [16]; 92% in [17]; 84% in [18]; 100% in [19]. Also, the residual activity was 90% in [20]; 86% in test [21]; 91% in test [22]; 100% in [23]; 89% in [24]; 74% in test [25]. The residual activity in [26] was 67%; in test [27], 100%; in test [28], 100%; in [29], 100%; in test [30], 78%; in [31] it was 100%. The residual activity in test [32] is 100%; in test [33] it was 94%; in test [34] it was 100%; in test [35] it was 100%; in test [36], 98%; in [37], 100%. Moreover, the residual activity in test [38] is 100%; in [39], 83%; in test [40], 100%; in test [41], 100%; in test [42] it was 100%; in [43] it was 100%. Moreover, the residual activity in test [44] and in test [45] was 100% each time.
